Experiments:
[1] = system: lipid of rat liver microsome; assay: Inhibition activity against hyperoxidation of lipid of rat liver microsome; type: biochemical, male Sprague Dawley (SD) rats; conditions: for antioxidant activity (conclusion from Table 2): result in words; for antioxidant activity: general statement in words, no test named at the place
Protocol: [Inhibition activity against hyperoxidation of lipid of rat liver microsome ] (1) Preparation of rat liver microsome suspension, A plurality of male Sprague Dawley (SD) rats (weighing […]) were prepared. Each rat was anesthetized with pentobarbital, and then subjected to celiotomy. A cannula was introduced into the portal vein of each rat, the abdominal large veins were sectioned, and 500 ml of cold 0.9% NaCl was injected into the portal veins. Livers were extracted from individual rats, and the livers were cut to pieces in 1.15% KCl and homogenized with ice cooling. Then, 1.15% KCl was further added to obtain a 30% liver homogenized solution. The above homogenized solution was centrifugally separated at 8,000 g (g: gravitation acceleration) for 10 minutes, and the resultant supernatant was recovered. […] The so-prepared suspension was stored at -20° C. before a test described in the following (2), and it was used within 1 week after the preparation. (2) Test on inhibition activity against hyperoxidation of lipid As test compounds, the hydroquinone (HQ) derivatives obtained in Preparation Examples 1 to 12, a known hydroquinone derivative which was a compound of the formula (I) in which R^1 was methyl (hereinafter referred to as HQ1) and BHT were respectively tested on their inhibition activities against hyperoxidation of lipid in the following manner. First, 0.1 ml of the liver microsome suspension obtained in the above (1), 0.1 ml of reduced […] (NADPH) (final concentration 2 mM), 0.1 ml of adenosine 5'-diphosphate (ADP) (final concentration 10 mM) and 0.1 ml of a solution of one of the test compounds whose concentration was adjusted as shown in Table 2 with 10% dimethylformamide (DMF) were added to a tris-HCl buffer (167 mM KCl, 74 mM tris-HCE buffer (TRIS), pH 7.4), and the resultant mixture was warmed at 37° C. for 5 minutes. Then, 0.1 ml of FeCl3 (final concentration 0.1 mM) was added, and the mixture was warmed at 37° C. for 20 minutes. […] Then, 0.2 ml of 8.1% sodium dodecylsulfate (SDS), 1.5 ml of an acetic acid buffer (prepared by adjusting 20% acetic acid containing 0.27 mM HCl to pH 3.5 with 10N NaOH) and 1.5 ml of 0.8% thiobarbituric acid were added to the cooled reaction mixture, and the resultant mixture was warmed over a boiling water bath for 20 minutes. […] The mixture was vigorously stirred. The reaction mixture was centrifugally separated at 2,000 rpm for 10 minutes, and the resultant supernatant was measured for an absorbance at 532 nm to determine a thiobarbituric acid reaction amount. […] In Control, the solution of the test compound in 10% DMF was replaced with 0.1 ml of a 10% DMF solution, and the above procedures were repeated to determine a peroxidized lipid amount. In Blank, each of 0.1 ml of NDAPH, 0.1 ml of ADP and 0.1 ml of FeCl3 were replaced with 0.1 ml of water, the solution of the test compound in 10% DMF was replaced with 0.1 ml of a 10% DMF solution, and the above procedures were repeated to determine a peroxidized lipid amount. The inhibition ratio of the lipid peroxidation reaction was calculated on the basis of the following equation. Inhibition ratio (%)=[1-(OD1 -OD3)/(OD2 -OD3)]×100 OD1 : Absorbance when test compound is added. OD2 : Absorbance of Control OD3 : Absorbance of Blank

mice = assay: Acute toxicity test by simple oral administering; type: in vivo, Female ICR mice; conditions: maximum dose 500 mg/kg, 14 days observation
Source text: Female ICR mice of 8 weeks age were used to carry out an acute toxicity test by simple oral administering.

[2] = DPPH elimination ability (active organic radical species elimination ability); type: biochemical; conditions: FIG. 1; absorbance at 517 nm; 0.02 ml of 10^-2 M DMF solution added to 2 ml of 10^-4 M DPPH in ethanol; result in words
Protocol: [DPPH elimination ability]
The hydroquinone derivative obtained in Preparation Example 5 and BHT as test compounds were measured for the ability to eliminate DPPH (α,α-diphenyl-β-picrylhydrazyl) (active organic radical species elimination ability) in the following manner.
The test compounds were respectively dissolved in DMF to prepare DMF solutions having a test compound concentration of 10^-2 M.
Then, 0.02 ml each of the above DMF solutions were respectively added to 2 ml of an ethanol EtOH solution containing 10^-4 M of DPPH, and the resultant solutions were measured for absorbance (ODS) at 517 nm at predetermined time intervals. The DPPH elimination ability of each test compound was determined on the basis of these measurement results. In Control, the DMF solution of the test compound was replaced with DMF itself,
The elimination ability of each test compound was determined as a reduction ratio of ODS to the absorbance in Control.

Salmonellae = conditions: result in words; cited from earlier work
laboratory animals = conditions: result in words; cited from earlier work
rats = conditions: liver, large intestine, small intestine and gland of external acoustic meatus; cited from earlier work

Compound | Inhibition ratio of lipid peroxidation ([1]; 10^-5 M test compound, 10 µM) [%] | Inhibition ratio of lipid peroxidation ([1]; 10^-6 M test compound, 1 µM) [%] | also measured
CCCCCCCCOc1ccc(O)cc1 [Preparation Example 1] | 99.7 | 9.8 | antioxidant activity (conclusion from Table 2) [1]: excellent antioxidant activity over the known hydroquinone derivative HQ1; mortality (mice): No mice were found to die
CCCCOc1cc(C)c(O)c(C)c1C [Preparation Example 3, 1-butyl-2,3,5-trimethylhydroquinone] | – | 75.9 | –
CCOc1cc(C)c(O)c(C)c1C [Preparation Example 12, 1-ethyl-2,3,5-trimethylhydroquinone] | 87.2 | – | mortality (mice): No mice were found to die
CCCCCCCCOc1cc(C)c(O)c(C)c1C [Preparation Example 5] | 100.0 | 74.8 | DPPH elimination ability [2]: excellent DPPH elimination ability over BHT
CCCCCCCCCCOc1cc(C)c(O)c(C)c1C [Preparation Example 6] | 99.9 | 38.3 | –
CCCCCCCCCCOc1ccc(O)cc1 [Preparation Example 2] | 79.5 | 1.8 | antioxidant activity (conclusion from Table 2) [1]: excellent antioxidant activity over the known hydroquinone derivative HQ1
CCCCOc1ccc(O)cc1 [Preparation Example 9, 1-butylhydroquinone] | 86.1 | 10.8 | antioxidant activity [1]: excellent antioxidant activity
CCCCCCCCCCCCOc1cc(C)c(O)c(C)c1C [Preparation Example 7] | 63.9 | 30.8 | –
CCCCCCOc1cc(C)c(O)c(C)c1C [Preparation Example 4] | 100.0 | 98.9 | –
CCCCCCOc1ccc(O)cc1 [Preparation Example 10] | 99.1 | 8.8 | antioxidant activity [1]: excellent antioxidant activity
CCCCCCCCCCCCOc1ccc(O)cc1 [Preparation Example 11, 1-dodecylhydroquinone] | 73.4 | 6.3 | antioxidant activity [1]: excellent antioxidant activity
CCCCCCOc1c(C)cc(O)c(C)c1C [Preparation Example 8] | 98.3 | 40 | –
Cc1cccn2c1nc1ccc(N)nc12 [Glu-P-1, 2-amino-6-methyldipyrido[1,2-a:3',2'-d]imidazole] | – | – | mutagenic activity (Salmonellae): high mutagenic activity to Salmonellae; carcinogenic activity (laboratory animals): carcinogenic activity to laboratory animals; incidence of cancer (rats): high rate of incidence of cancer
COc1ccc(O)cc1 [HQ1, reference compound] | 37.8 | – | –

Source: patent publication USRE36139E, “Hydroquinone derivative” (Nippon Hypox Laboratories Incorporated, priority 1995, dated 1999)
